Test results as given in PubChem BioAssay (NCI).
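Following 48 hours of exposure in 96-well plates, responses at five concentrations were used to interpolate endpoints linearly. The concentration for full growth arrest is given as TGI.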

Key:
Experiment in all cases: NCI-60 cell line screen, 48 h
SF-539 CNS = test system: SF-539 CNS
OVCAR-8 ovarian = test system: OVCAR-8 ovarian
UACC-62 melanoma = test system: UACC-62 melanoma
IGROV1 ovarian = test system: IGROV1 ovarian
SNB-75 CNS = test system: SNB-75 CNS
HS 578T breast = test system: HS 578T breast
T-47D breast = test system: T-47D breast
ACHN renal = test system: ACHN renal
SF-268 CNS = test system: SF-268 CNS
MOLT-4 leukemia = test system: MOLT-4 leukemia
HOP-92 NSCLC = test system: HOP-92 NSCLC
DU-145 prostate = test system: DU-145 prostate
LOX IMVI melanoma = test system: LOX IMVI melanoma
NCI/ADR-RES ovarian = test system: NCI/ADR-RES ovarian
MDA-MB-435 = test system: MDA-MB-435
SR leukemia = test system: SR leukemia
NCI-H23 lung = test system: NCI-H23 lung
MALME-3M melanoma = test system: MALME-3M melanoma
RXF 393 renal = test system: RXF 393 renal
OVCAR-5 ovarian = test system: OVCAR-5 ovarian
HT29 colon = test system: HT29 colon
SK-OV-3 ovarian = test system: SK-OV-3 ovarian
MCF7 breast = test system: MCF7 breast
SN12C renal = test system: SN12C renal
M14 melanoma = test system: M14 melanoma
TK-10 renal = test system: TK-10 renal
SW-620 colon = test system: SW-620 colon
EKVX NSCLC = test system: EKVX NSCLC
HOP-62 NSCLC = test system: HOP-62 NSCLC
OVCAR-4 ovarian = test system: OVCAR-4 ovarian
HCT-15 colon = test system: HCT-15 colon
PC-3 prostate = test system: PC-3 prostate
K-562 leukemia = test system: K-562 leukemia
A498 renal = test system: A498 renal
COLO 205 colon = test system: COLO 205 colon
UACC-257 melanoma = test system: UACC-257 melanoma
CAKI-1 renal = test system: CAKI-1 renal
NCI-H460 lung = test system: NCI-H460 lung
HL-60(TB) leukemia = test system: HL-60(TB) leukemia
MDA-MB-231 breast = test system: MDA-MB-231 breast
UO-31 renal = test system: UO-31 renal
CCRF-CEM leukemia = test system: CCRF-CEM leukemia
SK-MEL-28 melanoma = test system: SK-MEL-28 melanoma
SF-295 CNS = test system: SF-295 CNS
SK-MEL-5 melanoma = test system: SK-MEL-5 melanoma
MDA-N = test system: MDA-N
NCI-H226 lung = test system: NCI-H226 lung
U251 CNS = test system: U251 CNS
NCI-H522 lung = test system: NCI-H522 lung
BT-549 breast = test system: BT-549 breast
KM12 colon = test system: KM12 colon
SK-MEL-2 melanoma = test system: SK-MEL-2 melanoma
HCC-2998 colon = test system: HCC-2998 colon
SNB-19 CNS = test system: SNB-19 CNS
OVCAR-3 ovarian = test system: OVCAR-3 ovarian
RPMI-8226 leukemia = test system: RPMI-8226 leukemia
A549 NSCLC = test system: A549 NSCLC
HCT-116 colon = test system: HCT-116 colon
786-0 renal = test system: 786-0 renal

Question: Which results are given for `CCOC(=O)CC1CCN(C(=O)c2ccccc2)C2Cc3c([nH]c4ccccc34)C12C[N+](=O)[O-]` (stereo not given)?
Answer: TGI (SF-539 CNS): > 100 µM; TGI (OVCAR-8 ovarian): > 100 µM; TGI (UACC-62 melanoma): > 100 µM; TGI (IGROV1 ovarian): > 100 µM; TGI (SNB-75 CNS): > 100 µM; TGI (HS 578T breast): > 100 µM; TGI (T-47D breast): > 100 µM; TGI (ACHN renal): > 100 µM; TGI (SF-268 CNS): > 100 µM; TGI (MOLT-4 leukemia): > 100 µM; TGI (HOP-92 NSCLC): > 100 µM; TGI (DU-145 prostate): > 100 µM; TGI (LOX IMVI melanoma): > 100 µM; TGI (NCI/ADR-RES ovarian): > 100 µM; TGI (MDA-MB-435): > 100 µM; TGI (SR leukemia): > 100 µM; TGI (NCI-H23 lung): > 100 µM; TGI (MALME-3M melanoma): > 100 µM; TGI (RXF 393 renal): > 100 µM; TGI (OVCAR-5 ovarian): > 100 µM; TGI (HT29 colon): > 100 µM; TGI (SK-OV-3 ovarian): > 100 µM; TGI (MCF7 breast): > 100 µM; TGI (SN12C renal): > 100 µM; TGI (M14 melanoma): > 100 µM; TGI (TK-10 renal): > 100 µM; TGI (SW-620 colon): > 100 µM; TGI (EKVX NSCLC): > 100 µM; TGI (HOP-62 NSCLC): > 100 µM; TGI (OVCAR-4 ovarian): > 100 µM; TGI (HCT-15 colon): > 100 µM; TGI (PC-3 prostate): > 100 µM; TGI (K-562 leukemia): > 100 µM; TGI (A498 renal): > 100 µM; TGI (COLO 205 colon): > 100 µM; TGI (UACC-257 melanoma): > 100 µM; TGI (CAKI-1 renal): > 100 µM; TGI (NCI-H460 lung): > 100 µM; TGI (HL-60(TB) leukemia): > 100 µM; TGI (MDA-MB-231 breast): > 100 µM; TGI (UO-31 renal): > 100 µM; TGI (CCRF-CEM leukemia): 51.3 µM; TGI (SK-MEL-28 melanoma): > 100 µM; TGI (SF-295 CNS): > 100 µM; TGI (SK-MEL-5 melanoma): > 100 µM; TGI (MDA-N): > 100 µM; TGI (NCI-H226 lung): > 100 µM; TGI (U251 CNS): > 100 µM; TGI (NCI-H522 lung): > 100 µM; TGI (BT-549 breast): > 100 µM; TGI (KM12 colon): > 100 µM; TGI (SK-MEL-2 melanoma): > 100 µM

Question: How did the TGI (SF-539 CNS) turn out when `C#CCn1ncc2c(SCc3ccccc3)ncnc21` was run?
Answer: > 100 µM

Question: What about the TGI (OVCAR-8 ovarian) of the same compound?
Answer: > 100 µM

Question: And the TGI (UACC-62 melanoma)?
Answer: > 100 µM

Question: And the TGI (IGROV1 ovarian)?
Answer: > 100 µM

Question: What about the TGI (SNB-75 CNS) of the same compound?
Answer: > 100 µM

Question: What about the TGI (HS 578T breast) of the same compound?
Answer: > 100 µM

Question: What about the TGI (T-47D breast) of the same compound?
Answer: 27.1 µM

Question: What about the TGI (ACHN renal) of the same compound?
Answer: > 100 µM

Question: And the TGI (SF-268 CNS)?
Answer: > 100 µM

Question: And the TGI (HCC-2998 colon)?
Answer: > 100 µM

Question: What about the TGI (MOLT-4 leukemia) of the same compound?
Answer: 39 µM

Question: What about the TGI (HOP-92 NSCLC) of the same compound?
Answer: > 100 µM

Question: What about the TGI (DU-145 prostate) of the same compound?
Answer: > 100 µM

Question: What about the TGI (LOX IMVI melanoma) of the same compound?
Answer: > 100 µM

Question: And the TGI (NCI/ADR-RES ovarian)?
Answer: > 100 µM

Question: What about the TGI (MDA-MB-435) of the same compound?
Answer: > 100 µM

Question: And the TGI (SNB-19 CNS)?
Answer: > 100 µM

Question: What about the TGI (SR leukemia) of the same compound?
Answer: > 100 µM

Question: And the TGI (OVCAR-3 ovarian)?
Answer: > 100 µM

Question: And the TGI (NCI-H23 lung)?
Answer: > 100 µM

Question: What about the TGI (RPMI-8226 leukemia) of the same compound?
Answer: > 100 µM

Question: What about the TGI (MALME-3M melanoma) of the same compound?
Answer: > 100 µM

Question: And the TGI (RXF 393 renal)?
Answer: > 100 µM

Question: What about the TGI (OVCAR-5 ovarian) of the same compound?
Answer: > 100 µM

Question: What about the TGI (HT29 colon) of the same compound?
Answer: > 100 µM

Question: What about the TGI (SK-OV-3 ovarian) of the same compound?
Answer: > 100 µM

Question: And the TGI (MCF7 breast)?
Answer: > 100 µM

Question: What about the TGI (SN12C renal) of the same compound?
Answer: > 100 µM

Question: What about the TGI (M14 melanoma) of the same compound?
Answer: > 100 µM

Question: And the TGI (TK-10 renal)?
Answer: > 100 µM

Question: And the TGI (A549 NSCLC)?
Answer: > 100 µM

Question: What about the TGI (SW-620 colon) of the same compound?
Answer: > 100 µM

Question: And the TGI (EKVX NSCLC)?
Answer: > 100 µM

Question: What about the TGI (HOP-62 NSCLC) of the same compound?
Answer: > 100 µM

Question: What about the TGI (OVCAR-4 ovarian) of the same compound?
Answer: > 100 µM

Question: And the TGI (HCT-15 colon)?
Answer: > 100 µM

Question: What about the TGI (PC-3 prostate) of the same compound?
Answer: > 100 µM

Question: What about the TGI (K-562 leukemia) of the same compound?
Answer: > 100 µM

Question: What about the TGI (A498 renal) of the same compound?
Answer: > 100 µM

Question: What about the TGI (COLO 205 colon) of the same compound?
Answer: > 100 µM

Question: What about the TGI (UACC-257 melanoma) of the same compound?
Answer: > 100 µM

Question: What about the TGI (CAKI-1 renal) of the same compound?
Answer: > 100 µM

Question: And the TGI (NCI-H460 lung)?
Answer: > 100 µM

Question: What about the TGI (MDA-MB-231 breast) of the same compound?
Answer: > 100 µM

Question: What about the TGI (HCT-116 colon) of the same compound?
Answer: > 100 µM

Question: And the TGI (UO-31 renal)?
Answer: > 100 µM

Question: What about the TGI (CCRF-CEM leukemia) of the same compound?
Answer: > 100 µM

Question: And the TGI (SK-MEL-28 melanoma)?
Answer: > 100 µM

Question: What about the TGI (SF-295 CNS) of the same compound?
Answer: > 100 µM

Question: And the TGI (SK-MEL-5 melanoma)?
Answer: > 100 µM

Question: And the TGI (MDA-N)?
Answer: > 100 µM

Question: What about the TGI (NCI-H226 lung) of the same compound?
Answer: > 100 µM

Question: And the TGI (U251 CNS)?
Answer: > 100 µM

Question: What about the TGI (NCI-H522 lung) of the same compound?
Answer: > 100 µM

Question: What about the TGI (786-0 renal) of the same compound?
Answer: > 100 µM

Question: And the TGI (BT-549 breast)?
Answer: > 100 µM

Question: And the TGI (KM12 colon)?
Answer: > 100 µM

Question: What about the TGI (SK-MEL-2 melanoma) of the same compound?
Answer: > 100 µM
